According to patent publication US10485236B2, “Triazole derivatives, intermediates thereof and their use as fungicides” (Bayer CropScience Aktiengesellschaft, priority 2015, dated 2019):

Key:
Puccinia triticina = assay: Example K: in vivo preventive Puccinia triticina test (wheat); conditions: 192 h, 500 ppm of active ingredient, preventive spray, evaluated 8 days after inoculation, read-out: efficacy
Method: Example K: In Vivo Preventive Puccinia Triticina Test (Wheat)
To produce a suitable preparation of active compound, 1 part by weight of active compound or active compound combination is mixed with the stated amounts of solvent and emulsifier, and the concentrate is diluted with water to the desired concentration.
To test for preventive activity, young plants are sprayed with the preparation of active compound or active compound combination at the stated rate of application.
After the spray coating has been dried, the plants are sprayed with a spore suspension of Puccinia triticina. The plants remain for 48 hours in an incubation cabinet at approximately 20° C. and a relative atmospheric humidity of approximately 100%.
The plants are placed in the greenhouse at a temperature of approximately 20° C. and a relative atmospheric humidity of approximately 80%.
The test is evaluated 8 days after the inoculation. 0% means an efficacy which corresponds to that of the untreated control, while an efficacy of 100% means that no disease is observed.

Venturia inaequalis = assay: Example H: in vivo preventive test on Venturia test (apples); conditions: 240 h, 100 ppm of active ingredient, preventive spray, evaluated 10 days after inoculation, read-out: efficacy
Method: Example H: In Vivo Preventive Test on Venturia Test (Apples) [table] To produce a suitable preparation of active compound, 1 part by weight of active compound is mixed with the stated amounts of solvent and emulsifier, and the concentrate is diluted with water to the desired concentration. To test for preventive activity, young plants are sprayed with the preparation of active compound at the stated rate of application. After the spray coating has dried on, the plants are inoculated with an aqueous conidia suspension of the causal agent of apple scab (Venturia inaequalis) and then remain for 1 day in an incubation cabinet at approximately 20° C. and a relative atmospheric humidity of 100%. The plants are then placed in a greenhouse at approximately 21° C. and a relative atmospheric humidity of approximately 90%. The test is evaluated 10 days after the inoculation. 0% means an efficacy which corresponds to that of the untreated control, while an efficacy of 100% means that no disease is observed.

Alternaria solani = assay: Example F: in vivo preventive test on Alternaria test (tomatoes); conditions: 72 h, 100 ppm of active ingredient, preventive spray, evaluated 3 days after inoculation, read-out: efficacy
Method: Example F: In Vivo Preventive Test on Alternaria Test (Tomatoes) [table] To produce a suitable preparation of active compound, 1 part by weight of active compound is mixed with the stated amounts of solvent and emulsifier, and the concentrate is diluted with water to the desired concentration. To test for preventive activity, young plants are sprayed with the preparation of active compound at the stated rate of application. After the spray coating has dried on, the plants are inoculated with an aqueous spore suspension of Alternaria solani. The plants are then placed in an incubation cabinet at approximately 20° C. and a relative atmospheric humidity of 100%. The test is evaluated 3 days after the inoculation. 0% means an efficacy which corresponds to that of the untreated control while an efficacy of 100% means that no disease is observed.

Uromyces appendiculatus = assay: Example E: in vivo preventive test on Uromyces appendiculatus (bean rust); conditions: 264 h, 500 ppm of active ingredient, bean plants, preventive spray, evaluated 11 days after inoculation, read-out: efficacy
Method: Example E: In Vivo Preventive Test on Uromyces appendiculatus (Bean Rust) [table] The active ingredients are made soluble and homogenized in a mixture of Dimethyl sulfoxide/Acetone//Tween® 80 and then diluted in water to the desired concentration. The young plants of bean are treated by spraying the active ingredient prepared as described above. Control plants are treated only with an aqueous solution of Acetone/Dimethyl sulfoxide/Tween® 80. After 24 hours, the plants are contaminated by spraying the leaves with an aqueous suspension of Uromyces appendiculatus spores. The contaminated bean plants are incubated for 24 hours at 20° C. and at 100% relative humidity and then for 10 days at 20° C. and at 70-80% relative humidity. The test is evaluated 11 days after the inoculation. 0% means an efficacy which corresponds to that of the control plants while an efficacy of 100% means that no disease is observed.

Septoria tritici = assay: Example C: in vivo preventive test on Septoria tritici (leaf spot on wheat); conditions: Zymoseptoria tritici, 576 h; 500 ppm of active ingredient; wheat plants, preventive spray; evaluated 24 days after inoculation; read-out: efficacy
Method: Example C: In Vivo Preventive Test on Septoria tritici (Leaf Spot on Wheat) [table] The active ingredients are made soluble and homogenized in a mixture of Dimethyl sulfoxide/Acetone//Tween® 80 and then diluted in water to the desired concentration. The young plants of wheat are treated by spraying the active ingredient prepared as described above. Control plants are treated only with an aqueous solution of Acetone/Dimethyl sulfoxide/Tween® 80. After 24 hours, the plants are contaminated by spraying the leaves with an aqueous suspension of Septoria tritici spores. The contaminated wheat plants are incubated for 72 hours at 18° C. and at 100% relative humidity and then for 21 days at 20° C. and at 90% relative humidity. The test is evaluated 24 days after the inoculation. 0% means an efficacy which corresponds to that of the control plants while an efficacy of 100% means that no disease is observed.

Phakopsora pachyrhizi = assay: Example G: in vivo preventive test on Phakopsora test (soybeans); conditions: 168 h, 100 ppm of active ingredient, preventive spray, evaluated 7 days after inoculation, read-out: efficacy
Method: Example G: In Vivo Preventive Test on Phakopsora Test (Soybeans) [table] To produce a suitable preparation of active compound, 1 part by weight of active compound is mixed with the stated amounts of solvent and emulsifier, and the concentrate is diluted with water to the desired concentration. To test for preventive activity, young plants are sprayed with the preparation of active compound at the stated rate of application. After the spray coating has dried on, the plants are inoculated with an aqueous spore suspension of the causal agent of soybean rust (Phakopsora pachyrhizi) and stay for 24 h without light in an incubation cabinet at approximately 24° C. and a relative atmospheric humidity of 95%. The plants remain in the incubation cabinet at approximately 24° C. and a relative atmospheric humidity of approximately 80% and a day/night interval of 12 h. The test is evaluated 7 days after the inoculation. 0% means an efficacy which corresponds to that of the untreated control, while an efficacy of 100% means that no disease is observed.

Sphaerotheca fuliginea = assay: Example D: in vivo preventive test on Sphaerotheca fuliginea (powdery mildew on cucurbits); conditions: Podosphaera fuliginea, 360 h; 500 ppm of active ingredient; gherkin plants, preventive spray; evaluated 15 days after inoculation; read-out: efficacy
Method: Example D: In Vivo Preventive Test on Sphaerotheca fuliginea (Powdery Mildew on Cucurbits) [table] The active ingredients are made soluble and homogenized in a mixture of Dimethyl sulfoxide/Acetone//Tween® 80 and then diluted in water to the desired concentration. The young plants of gherkin are treated by spraying the active ingredient prepared as described above. Control plants are treated only with an aqueous solution of Acetone/Dimethyl sulfoxide/Tween® 80. After 24 hours, the plants are contaminated by spraying the leaves with an aqueous suspension of Sphaerotheca fuliginea spores. The contaminated gherkin plants are incubated for 72 hours at 18° C. and at 100% relative humidity and then for 12 days at 20° C. and at 70-80% relative humidity. The test is evaluated 15 days after the inoculation. 0% means an efficacy which corresponds to that of the control plants while an efficacy of 100% means that no disease is observed.

SMILES	pest or weed control at 500 ppm (Puccinia triticina)	pest or weed control at 100 ppm (Venturia inaequalis)	pest or weed control at 100 ppm (Alternaria solani)	pest or weed control at 500 ppm (Uromyces appendiculatus)	pest or weed control at 500 ppm (Septoria tritici)	pest or weed control at 100 ppm (Phakopsora pachyrhizi)	pest or weed control at 500 ppm (Sphaerotheca fuliginea)
CC(O)(Cn1cncn1)c1ccc(Oc2ccc(Cl)cc2)nc1C(F)(F)F (centres unmarked) [I.01, 2-[6-(4-chlorophenoxy)-2-(trifluoromethyl)-3-pyridyl]-1-(1,2,4-triazol-1-yl)propan-2-ol]	90 to 100%	90 to 100%	90 to 100%	90 to 100%	90 to 100%	90 to 100%	90 to 100%
CC(O)(Cn1cncn1)c1cnc(Oc2ccc(Cl)cc2)cc1C(F)(F)F (centres unmarked) [I.02, 2-[6-(4-chlorophenoxy)-4-(trifluoromethyl)-3-pyridyl]-1-(1,2,4-triazol-1-yl)propan-2-ol]	90 to 100%	90 to 100%	90 to 100%	90 to 100%	80 to 89%	90 to 100%	90 to 100%
OC(Cn1cncn1)c1ccc(Oc2ccc(Cl)cc2)nc1C(F)(F)F (centres unmarked) [I.03, 1-[6-(4-chlorophenoxy)-2-(trifluoromethyl)-3-pyridyl]-2-(1,2,4-triazol-1-yl)ethanol]	90 to 100%	90 to 100%	80 to 89%	90 to 100%	90 to 100%	90 to 100%	90 to 100%
CC(O)(Cn1cncn1)c1cnc(Oc2ccccc2)cc1Cl (centres unmarked) [I.05]	90 to 100%	90 to 100%	90 to 100%	90 to 100%	90 to 100%	90 to 100%	90 to 100%
OC(Cn1cncn1)c1ccc(Oc2ccc(Cl)cc2)nc1Cl (centres unmarked) [I.14]	90 to 100%	90 to 100%	90 to 100%	90 to 100%	90 to 100%	90 to 100%	90 to 100%
Cc1ccc(Oc2ccc(C(O)Cn3cncn3)c(Cl)n2)cc1Cl (centres unmarked) [I.16]	–	90 to 100%	90 to 100%	90 to 100%	80 to 89%	90 to 100%	90 to 100%
CC(O)(Cn1cncn1)c1ccc(Oc2ccc(S(F)(F)(F)(F)F)cc2)nc1Cl (centres unmarked) [I.35]	90 to 100%	90 to 100%	90 to 100%	90 to 100%	90 to 100%	70 to 79%	90 to 100%
OC(Cn1cncn1)c1cnc(Oc2ccc(S(F)(F)(F)(F)F)cc2)cc1C(F)(F)F (centres unmarked) [I.36]	90 to 100%	90 to 100%	90 to 100%	90 to 100%	80 to 89%	90 to 100%	90 to 100%
CC(O)(Cn1cncn1)c1ccc(Oc2ccc(C(F)F)cc2)nc1Cl (centres unmarked) [I.39]	90 to 100%	80 to 89%	90 to 100%	90 to 100%	90 to 100%	90 to 100%	90 to 100%
C[C@@](O)(Cn1cncn1)c1cnc(Oc2ccc(Cl)cc2)cc1C(F)(F)F [I.45]	90 to 100%	90 to 100%	90 to 100%	90 to 100%	90 to 100%	90 to 100%	90 to 100%
OC(Cn1cncn1)c1cnc(Oc2ccc(C(F)(F)F)cc2)cc1C(F)(F)F (centres unmarked) [I.47]	90 to 100%	90 to 100%	90 to 100%	90 to 100%	90 to 100%	90 to 100%	90 to 100%
OC(Cn1cncn1)(c1ccc(Oc2ccc(Cl)cc2)nc1C(F)(F)F)C1CC1 (centres unmarked) [I.91, 1-[6-(4-chlorophenoxy)-2-(trifluoromethyl)-3-pyridyl]-1-cyclopropyl-2-(1,2,4-triazol-1-yl)ethanol]	90 to 100%	90 to 100%	–	90 to 100%	90 to 100%	90 to 100%	90 to 100%
O=C(Cn1cncn1)c1ccc(Oc2ccc(Cl)cc2)nc1C(F)(F)F [VII.01, 1-[6-(4-chlorophenoxy)-2-(trifluoromethyl)-3-pyridyl]-2-(1,2,4-triazol-1-yl)ethanone]	90 to 100%	90 to 100%	80 to 89%	90 to 100%	80 to 89%	80 to 89%	90 to 100%
